Data on 28 molecules can be found in patent US11111251B2, “Positive allosteric modulators of the muscarinic acetylcholine receptor M1” (Vanderbilt University, priority 2016, dated 2021).

In this assay the target is T1, human mAChR M1 (Homo sapiens, UniProt P11229).
T1 sequence (P11229 1-460): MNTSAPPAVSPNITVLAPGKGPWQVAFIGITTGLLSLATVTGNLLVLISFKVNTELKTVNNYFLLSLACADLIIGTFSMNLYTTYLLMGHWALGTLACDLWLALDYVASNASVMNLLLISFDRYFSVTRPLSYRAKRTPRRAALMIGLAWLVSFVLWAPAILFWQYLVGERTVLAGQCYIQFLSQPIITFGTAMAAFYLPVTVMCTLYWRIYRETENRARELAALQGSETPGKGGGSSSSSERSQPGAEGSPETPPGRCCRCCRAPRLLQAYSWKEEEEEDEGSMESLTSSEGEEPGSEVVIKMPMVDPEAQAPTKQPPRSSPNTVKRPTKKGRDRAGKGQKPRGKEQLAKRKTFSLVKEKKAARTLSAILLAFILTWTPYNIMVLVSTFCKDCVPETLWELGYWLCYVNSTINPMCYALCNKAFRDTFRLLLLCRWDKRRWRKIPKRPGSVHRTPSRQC
As to the kind of experiment: mAChR M1 cell-based functional assay: calcium mobilization, positive allosteric modulator mode (increase in EC20 acetylcholine response). As to conditions: Table 2, human M1; for EC50: read-out: Human M1 EC50; for Emax: read-out: Human M1 Emax (%). The procedure, abridged:
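PAM potency reflects the concentration-dependent increase in calcium response to an EC20 acetylcholine challenge, given 144 s into a 300 s read after compound addition at 4 s (EC80 follows at 230 s). Cells were hM1-expressing CHO-K1, loaded 50 min with Fluo-4 AM. Curves used 11 points at 1:3 dilutions and four-parameter logistic fitting.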

A word on the EC50: it is the concentration giving half of the maximal effect. For orientation: Emax means the size of the effect at its maximum, as opposed to the concentration needed. `CC1CC(NC(=O)c2cc(Cc3ccc(-c4cnn(C)c4)cc3)c3sccc3n2)CC(C)O1` (centres unmarked) [Compound 380, N-(2,6-dimethyltetrahydropyran-4-yl)-7-[[4-(1-methylpyrazol-4-yl)phenyl]methyl]thieno[3,2-b]pyridine-5-carboxamide]: the concentration for a half-maximal effect (EC50) was determined as 0.287 µM and the maximal effect (Emax) came out at 64.5%.

Turning to `Cn1cc(-c2ccc(Cc3cc(C(=O)N[C@H]4CC[C@@H]4O)nc4ccsc34)cn2)cn1` [Compound 328, N-[(1S,2S)-2-hydroxycyclobutyl]-7-[[6-(1-methylpyrazol-4-yl)-3-pyridyl]methyl]thieno[3,2-b]pyridine-5-carboxamide], the EC50 turned out to be 0.197 µM and the maximal response (Emax) was found to be 80.5%.

For `Cn1ccc(-c2ccc(Cc3cc(C(=O)NC4CCOC(C)(C)C4)nc4ccsc34)cc2)n1` (centres unmarked) [Compound 325, N-(2,2-dimethyltetrahydropyran-4-yl)-7-[[4-(1-methylpyrazol-3-yl)phenyl]methyl]thieno[3,2-b]pyridine-5-carboxamide], the EC50 was determined as 0.907 µM and the Emax worked out at 83.3%.

For the molecule `O=C(N[C@H]1CCCC[C@@H]1O)c1cc(Cc2ccc(-c3cncs3)cc2)c2sccc2n1` [Compound 395, N-[(1S,2S)-2-hydroxycyclohexyl]-7-[(4-thiazol-5-ylphenyl)methyl]thieno[3,2-b]pyridine-5-carboxamide], the concentration giving a half-maximal response (EC50) was 0.0185 µM and the Emax is 60.1%.

With `O=C(N[C@@H]1COCC[C@H]1O)c1cc(Cc2ccc(C(F)(F)F)nc2)c2sccc2n1` [Compound 92, N-[(3R,4R)-4-hydroxytetrahydropyran-3-yl]-7-[[6-(trifluoromethyl)-3-pyridyl]methyl]thieno[3,2-b]pyridine-5-carboxamide], the concentration giving a half-maximal response (EC50) is above 10 µM and the maximum response (Emax) stood at 66.8%.

In the case of `Cn1cc(-c2ccc(Cc3cc(C(=O)NC4CC(F)(F)C4)nc4ccsc34)cn2)cn1` [Compound 345, N-(3,3-difluorocyclobutyl)-7-[[6-(1-methylpyrazol-4-yl)-3-pyridyl]methyl]thieno[3,2-b]pyridine-5-carboxamide], the EC50 was 0.203 µM and the maximal response (Emax) was 74.5%.

As to `O=C(NC1CCCCC1)c1cc(Cc2ccc(-n3cccn3)cc2)c2sccc2n1` [Compound 72, N-cyclohexyl-7-[(4-pyrazol-1-ylphenyl)methyl]thieno[3,2-b]pyridine-5-carboxamide], the EC50 was above 10 µM and the Emax came to 84.5%.

As to `Cn1ccc(-c2ccc(Cc3cc(C(=O)NC[C@H]4CCCN4)nc4ccsc34)cn2)n1` [Compound 427], the EC50 amounted to 0.316 µM and the Emax worked out at 64.6%.

Consider `Cc1csc2c(Cc3ccc(-n4cccn4)cc3)cc(C(=O)NC[C@H]3CCCO3)nc12` [Compound 322, 3-methyl-7-[(4-pyrazol-1-ylphenyl)methyl]-N-[[(2R)-tetrahydrofuran-2-yl]methyl]thieno[3,2-b]pyridine-5-carboxamide], for which the concentration giving a half-maximal response (EC50) is 0.62 µM and the maximal effect (Emax) worked out at 75.1%.

With `Cc1nc(-c2ccc(Cc3cc(C(=O)N[C@@H]4COCC[C@H]4O)nc4ccsc34)cc2)co1` [Compound 167, N-[(3R,4R)-4-hydroxytetrahydropyran-3-yl]-7-[[4-(2-methyloxazol-4-yl)phenyl]methyl]thieno[3,2-b]pyridine-5-carboxamide], the EC50 came to 0.0253 µM and the maximal effect (Emax) came to 90.4%.

With `COCCNC(=O)c1cc(Cc2ccc(-c3cnn(C)c3)nc2)c2sccc2n1` [Compound 342, N-(2-methoxyethyl)-7-[[6-(1-methylpyrazol-4-yl)-3-pyridyl]methyl]thieno[3,2-b]pyridine-5-carboxamide], the EC50 worked out at 0.289 µM and the maximal response (Emax) came out at 89.5%.

In the case of `Cc1csc2c(Cc3ccc(-n4cccn4)cc3)cc(C(=O)NC3COC3)nc12` [Compound 319, 3-methyl-N-(oxetan-3-yl)-7-[(4-pyrazol-1-ylphenyl)methyl]thieno[3,2-b]pyridine-5-carboxamide], the half-maximal effective concentration (EC50) came to 1.81 µM and the maximum response (Emax) was found to be 56.1%.

As for `Cc1csc2c(Cc3ccc(-n4cccn4)cc3)cc(C(=O)NCC3CCOC3)nc12` (centres unmarked) [Compound 321, 3-methyl-7-[(4-pyrazol-1-ylphenyl)methyl]-N-(tetrahydrofuran-3-ylmethyl)thieno[3,2-b]pyridine-5-carboxamide], the concentration for a half-maximal effect (EC50) turned out to be 0.805 µM and the Emax came to 79.2%.

Turning to `O=C(N[C@@H]1CCCC[C@H]1O)c1cc(Cc2ccc(C(F)(F)F)nc2)c2sccc2n1` [Compound 90, N-[(1R,2R)-2-hydroxycyclohexyl]-7-[[6-(trifluoromethyl)-3-pyridyl]methyl]thieno[3,2-b]pyridine-5-carboxamide], the EC50 came out at 0.154 µM and the Emax was 90.7%.

For the molecule `O=C(NC1CCOCC1)c1cc(Cc2ccc(-n3cccn3)cc2)c2sccc2n1` [Compound 228, 7-[(4-pyrazol-1-ylphenyl)methyl]-N-tetrahydropyran-4-yl-thieno[3,2-b]pyridine-5-carboxamide], the EC50 was determined as 0.16 µM and the maximum response (Emax) came out at 81.8%.

With `C[C@@H]1COCC[C@@H]1NC(=O)c1cc(Cc2ccc(-c3cncs3)cc2)c2sccc2n1` [Compound 392, N-[(3S,4S)-3-methyltetrahydropyran-4-yl]-7-[(4-thiazol-5-ylphenyl)methyl]thieno[3,2-b]pyridine-5-carboxamide], the half-maximal effective concentration (EC50) worked out at 0.199 µM and the maximum response (Emax) turned out to be 65.4%.

For the molecule `CC1CC(NC(=O)c2cc(Cc3ccc(-c4cnn(C)c4)nc3)c3sccc3n2)CC(C)O1` (centres unmarked) [Compound 335, N-(2,6-dimethyltetrahydropyran-4-yl)-7-[[6-(1-methylpyrazol-4-yl)-3-pyridyl]methyl]thieno[3,2-b]pyridine-5-carboxamide], the 50% effective concentration (EC50) is 0.158 µM and the Emax was determined as 83.6%.

On to `Cn1cc(-c2ccc(Cc3cc(C(=O)NC4CN(C5COC5)C4)nc4ccsc34)cn2)cn1` [Compound 364], for which the EC50 was determined as 0.832 µM and the maximum response (Emax) is 83.8%.

In the case of `O=C(NC1CC(F)(F)C1)c1cc(Cc2ccc(-c3nccs3)cc2)c2sccc2n1` [Compound 383], the 50% effective concentration (EC50) is above 10 µM and the Emax came out at 30.4%.

Consider `Cn1cc(-c2ccc(Cc3cc(C(=O)N[C@H]4CCOC[C@@H]4O)nc4ccsc34)cc2)cn1` [Compound 267, N-[(3R,4S)-3-hydroxytetrahydropyran-4-yl]-7-[[4-(1-methylpyrazol-4-yl)phenyl]methyl]thieno[3,2-b]pyridine-5-carboxamide], for which the EC50 was found to be 0.00341 µM and the Emax is 50.9%.

In the case of `Cn1ccc(-c2ccc(Cc3cc(C(=O)NCC4CCOCC4)nc4ccn(C)c34)cc2)n1` [Compound 476, 1-methyl-7-[[4-(1-methylpyrazol-3-yl)phenyl]methyl]-N-(tetrahydropyran-4-ylmethyl)pyrrolo[3,2-b]pyridine-5-carboxamide], the half-maximal effective concentration (EC50) turned out to be 0.28 µM and the Emax came out at 83.5%.

Regarding `Cn1cc(-c2ccc(Cc3cc(C(=O)N[C@@H]4CCCC[C@H]4O)nc4ccsc34)cc2)nn1` [Compound 155, N-[(1R,2R)-2-hydroxycyclohexyl]-7-[[4-(1-methyltriazol-4-yl)phenyl]methyl]thieno[3,2-b]pyridine-5-carboxamide], the EC50 is 0.0127 µM and the maximal effect (Emax) came out at 68.7%.

Take `O=C(NC1CC(F)C1)c1cc(Cc2ccc(-c3cncs3)cc2)c2sccc2n1` (centres unmarked) [Compound 401, N-(3-fluorocyclobutyl)-7-[(4-thiazol-5-ylphenyl)methyl]thieno[3,2-b]pyridine-5-carboxamide]: the half-maximal effective concentration (EC50) came to 4.57 µM and the Emax came to 40.5%.

`Cn1ccc(-c2ccc(Cc3cc(C(=O)NC4CC5(COC5)C4)nc4ccn(C)c34)cc2)n1` [Compound 475, 1-methyl-7-[[4-(1-methylpyrazol-3-yl)phenyl]methyl]-N-(2-oxaspiro[3.3]heptan-6-yl)pyrrolo[3,2-b]pyridine-5-carboxamide]: the EC50 came out at 0.183 µM and the Emax is 83.5%.

On to `Cn1cc(-c2ccc(Cc3cc(C(=O)NC4CCOC(C)(C)C4)nc4ccsc34)cn2)cn1` (centres unmarked) [Compound 336, N-(2,2-dimethyltetrahydropyran-4-yl)-7-[[6-(1-methylpyrazol-4-yl)-3-pyridyl]methyl]thieno[3,2-b]pyridine-5-carboxamide], for which the concentration for a half-maximal effect (EC50) worked out at 0.0643 µM and the Emax was found to be 58.4%.

On to `Cn1cc(-c2ccc(Cc3cc(C(=O)NCC4CCCCO4)nc4ccsc34)cn2)cn1` (centres unmarked) [Compound 340, 7-[[6-(1-methylpyrazol-4-yl)-3-pyridyl]methyl]-N-(tetrahydropyran-2-ylmethyl)thieno[3,2-b]pyridine-5-carboxamide], for which the EC50 is 0.225 µM and the maximal effect (Emax) is 88.3%.

Turning to `Cn1cc(-c2ccc(Cc3cc(C(=O)N[C@H]4COCC[C@@H]4O)nc4ccsc34)c(F)c2)cn1` [Compound 53, 7-[[2-fluoro-4-(1-methylpyrazol-4-yl)phenyl]methyl]-N-[(3S,4S)-4-hydroxytetrahydropyran-3-yl]thieno[3,2-b]pyridine-5-carboxamide], the EC50 came out at 3.07 µM and the maximal response (Emax) stood at 79%.

As for `O=C(NC1CC(F)C1)c1cc(Cc2ccc(-n3cccn3)cc2)c2sccc2n1` (centres unmarked) [Compound 280, N-(3-fluorocyclobutyl)-7-[(4-pyrazol-1-ylphenyl)methyl]thieno[3,2-b]pyridine-5-carboxamide], the half-maximal effective concentration (EC50) is 0.297 µM and the maximum response (Emax) came out at 71.8%.
